Results: patent US7445641B1, “Biomaterials modified with superoxide dismutase mimics” (priority 1999, dated 2008)

What was measured:
[1] = Stopped-flow kinetic analysis of superoxide dismutation; assay type: biochemical; parameters: kcat pH 8.1 / kcat pH 7.4: unit not given here
Excerpt: Stopped-flow kinetic analysis is an accurate and direct method for quantitatively monitoring the decay rates of superoxide in water.
For the attainment of consistent and accurate measurements all reagents were biologically clean and metal-free. To achieve this, all buffers (Calbiochem) were biological grade, metal-free buffers and were handled with utensils which had been washed first with 0.1N HCl, followed by purified water, followed by a rinse in a 10^−4 M EDTA bath at pH 8, followed by a rinse with purified water and dried at 65° C. for several hours. Dry DMSO solutions of potassium superoxide (Aldrich) were prepared under a dry, inert atmosphere of argon in a Vacuum Atmospheres dry glovebox using dried glassware. The DMSO solutions were prepared immediately before every stopped-flow experiment. A mortar and pestle were used to grind the yellow solid potassium superoxide (~100 mg). The powder was then ground with a few drops of DMSO and the slurry transferred to a flask containing an additional 25 ml of DMSO. The resultant slurry was stirred for ½ h and then filtered. This procedure gave reproducibly ~2 mM concentrations of superoxide in DMSO. These solutions were transferred to a glovebag under nitrogen in sealed vials prior to loading the syringe under nitrogen. It should be noted that the DMSO/superoxide solutions are extremely sensitive to water, heat, air, and extraneous metals. A fresh, pure solution has a very slight yellowish tint.
Water for buffer solutions was delivered from an in-house deionized water system to a Barnstead Nanopure Ultrapure Series 550 water system and then double distilled, first from alkaline potassium permanganate and then from a dilute EDTA solution. For example, a solution containing 1.0 g of potassium permanganate, 2 liters of water and additional sodium hydroxide necessary to bring the pH to 9.0 were added to a 2-liter flask fitted with a solvent distillation head. This distillation will oxidize any trace of organic compounds in the water. The final distillation was carried out under nitrogen in a 2.5-liter flask containing 1500 ml of water from the first still and 1.0×10^−6 M EDTA. This step will remove remaining trace metals from the ultrapure water. To prevent EDTA mist from volatilizing over the reflux arm to the still head, the 40-cm vertical arm was packed with glass beads and wrapped with insulation. This system produces deoxygenated water that can be measured to have a conductivity of less than 2.0 nanomhos/cm^2.
The stopped-flow spectrometer system was designed and manufactured by Kinetic Instruments Inc. (Ann Arbor, Mich.) and was interfaced to a MAC IICX personal computer. The software for the stopped-flow analysis was provided by Kinetics Instrument Inc. and was written in QuickBasic with MacAdios drivers. Typical injector volumes (0.10 ml of buffer and 0.006 ml of DMSO) were calibrated so that a large excess of water over the DMSO solution were mixed together. The actual ratio was approximately 19/1 so that the initial concentration of superoxide in the aqueous solution was in the range 60-120 μM. […]

[2] = polypropylene admixed 2% by weight, melted at 250° C., extracted with pure water
Method: 0.105 g of Compound 38 was added to 4.9 g of cryoground polypropylene. The mixture was melted at 250° C. and extruded into a strand and a fiber. In this manner, a polypropylene modified with a non-proteinaceous catalyst, 2% by weight, was made. The product strand was cryoground and extracted with pure water.

**Q.** With `[Cl-].[Cl-].[Mn+2].c1cc2nc(c1)CN[C@@H]1CCCC[C@H]1NCCN[C@@H]1CCCC[C@H]1NC2` [Compound 38, Manganese (II) dichloro{(4R,9R,14R,19R)-3,10,13,20,26-pentaazatetracyclo [20.3.1.04,9.014,19]hexacosa-1(26),22(23),24-triene}] as the compound, how does the “activity of compound extracted from the strand” value ([1]; extracted with pure water from polypropylene strand, confirmed by stopped-flow kinetic analysis and HPLC-UV) read?
**A.** Its value is “Active”.

**Q.** And the “kcat pH 7.4” value ([1]; pH 7.4)?
**A.** The value was 1.64.

**Q.** And the “kcat pH 8.1” value ([1]; pH 8.1)?
**A.** The value was 1.19.

**Q.** And the “elution of the admixed compound from the cryoground polymer” value [2]?
**A.** Its value is ~10%.
